The values below come from patent US20240116882A1, “NOVEL BENZOTRIAZOLE DERIVATIVE HAVING INHIBITORY ACTIVITY AGAINST ECTONUCLEOTIDE PYROPHOSPHATASE-PHOSPHODIESTERASE, AND USE THEREOF” (TXINNO BIOSCIENCE INC., priority 2021, published 2024).

As usually defined, the IC50 is the concentration that gives 50% inhibition.

Counter-ions that a name gives are not always drawn.

For this assay, the target named is T1, human recombinant ENPP1 enzymes (Homo sapiens, UniProt P22413).
T1 construct: purchased R & D systems
T1 sequence (P22413 1-925): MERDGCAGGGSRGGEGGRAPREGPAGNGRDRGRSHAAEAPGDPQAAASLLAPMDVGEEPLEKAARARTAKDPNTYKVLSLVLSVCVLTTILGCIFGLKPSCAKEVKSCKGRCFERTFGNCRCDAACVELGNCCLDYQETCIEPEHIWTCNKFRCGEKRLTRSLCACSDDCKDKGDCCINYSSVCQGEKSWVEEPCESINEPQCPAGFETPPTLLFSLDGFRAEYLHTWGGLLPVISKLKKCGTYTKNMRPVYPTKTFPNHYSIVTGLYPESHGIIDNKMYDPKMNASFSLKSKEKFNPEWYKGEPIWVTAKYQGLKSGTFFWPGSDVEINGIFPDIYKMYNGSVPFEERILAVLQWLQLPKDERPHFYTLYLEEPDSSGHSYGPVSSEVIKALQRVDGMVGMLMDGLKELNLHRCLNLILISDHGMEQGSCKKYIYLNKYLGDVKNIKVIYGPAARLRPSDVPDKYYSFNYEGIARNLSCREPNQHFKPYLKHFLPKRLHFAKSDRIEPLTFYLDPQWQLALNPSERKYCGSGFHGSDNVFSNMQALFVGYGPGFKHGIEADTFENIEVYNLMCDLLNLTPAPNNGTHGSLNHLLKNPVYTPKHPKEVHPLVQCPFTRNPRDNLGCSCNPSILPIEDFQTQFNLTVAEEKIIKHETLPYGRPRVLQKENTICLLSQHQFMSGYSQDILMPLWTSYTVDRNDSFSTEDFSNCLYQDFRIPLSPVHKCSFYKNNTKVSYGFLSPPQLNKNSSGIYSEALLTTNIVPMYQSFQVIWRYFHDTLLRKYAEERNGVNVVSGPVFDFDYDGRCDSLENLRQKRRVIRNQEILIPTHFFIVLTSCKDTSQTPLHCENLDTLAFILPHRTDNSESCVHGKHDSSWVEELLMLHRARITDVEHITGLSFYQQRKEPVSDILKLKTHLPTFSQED
Briefly: ENPP1 Enzyme Assay with cGAMP Substrate (AMP-Glo). In kind it is biochemical. The conditions noted are these: human recombinant ENPP1, cGAMP 5 μM, 37° C. 90 minutes, AMP-Glo luminescence; read-out: Enzymatic activity (IC50). Here is the method: ENPP1 hydrolyzes nucleotides or nucleotide derivatives to produce nucleoside-5′-monophosphate and pyrophosphate. In addition, ENPP1 hydrolyzes 2′,3′-cGAMP to produce 5′-adenosine monophosphate (AMP) and 5′-guanosine monophosphate (GMP). AMP produced from the reaction is measured using the AMP-Glo® kit (Promega). The AMP-Glo® kit contains two reagents. The first reagent terminates the AMP-producing enzymatic reaction, removes ATP and converts the produced AMP into ADP. The second reagent converts ADP into ATP which is used to generate luminescence in the luciferase reaction. The amount of luminescence measured is proportional to the amount of AMP produced by ENPP1.
The final reaction solution contains 50 mM Tris (pH 8.5) buffer, 250 mM NaCl, 0.5 mM CaCl2), 1 μM ZnCl2, 5% glycerol and 1% DMSO. Serially diluted ENPP1 inhibitors (typically in the range of 10 μM to 0.5 nM) were pre-stored with human recombinant ENPP1 enzymes (R & D systems) at 3 ng/reaction and room temperature (RT) for 5 to 10 minutes. The reaction was initiated by addition of cGAMP (at a final concentration of 5 μM) and reacted at 37° C. for 90 minutes. At the end of the reaction, 10 μl of the AMP-Glo first reagent was added to stop the reaction and the result was stored at room temperature for 1 hour. After storage, 20 μl of an AMP detection solution (a mixture of AMP-Glo II reagent and Kinase-Glo at a ratio of 1:100) was added and stored at room temperature for 1 hour. Luminescence signals were measured using a Victor® plate reader (Perkin Elmer). The maximal activity control (containing enzymes and substrates in the presence of 1% DMSO; MAX) and the minimal activity control (containing substrates and 1% DMSO; MIN) were evaluated simultaneously. In each experiment, serially diluted reference ENPP1 inhibitors were tested as well. IC50, indicating % residual activity versus compound concentration was determined by fitting inhibition curves using the 3-parameter analysis of GraphPad Prism® software. Serially diluted samples of one compound were tested two or more times and an average IC50 of each compound was calculated.
In the case of `COc1ccc2c(c1)nnn2Cc1ccc(CNS(N)(=O)=O)cc1` [Example 105, N-(4-((5-methoxy-1H-benzo[d][1,2,3]triazol-1-yl)methyl)benzyl)sulfamide Hydrochloride], the IC50 was > 10 µM.

As to `NS(=O)(=O)NCc1ccc(-n2nnc3ccccc32)c(F)c1F` [Example 57, N-(4-(1H-benzo[d][1,2,3]triazol-1-yl)-2,3-difluorobenzyl)sulfamide], the IC50 was < 1 µM. Take `NS(=O)(=O)NCc1ccc(-n2nnc3cc(OC(F)(F)F)ccc32)c(F)c1` [Example 90]: the IC50 is > 10 µM. The same measure for `COc1ccc2c(ccn2-c2ccc(CNS(N)(=O)=O)cc2)c1` [Example 122, N-(4-(5-methoxy-1H-indol-1-yl)benzyl)sulfamide]: > 10 µM; for `COc1ccc2c(c1)nnn2-c1cc(F)c(CN)cc1F` [Example 17]: > 10 µM. The same measure for `COc1ccc2c(c1)nnn2-c1ccc(CNS(N)(=O)=O)cc1F` [Example 61, N-(4-(5-methoxy-1H-benzo[d][1,2,3]triazol-1-yl)-3-fluorobenzyl)sulfamide]: < 1 µM. The result for `CC(C)Oc1ccc2c(c1)nnn2-c1ccc(CNS(N)(=O)=O)cc1F` [Example 77, N-(3-fluoro-4-(5-isopropoxy-1H-benzo[d][1,2,3]triazol-1-yl)benzyl)sulfamide] reads > 10 µM; that for `COc1ccc2c(c1)nnn2-c1cc2c(cc1F)CN(S(N)(=O)=O)CC2` [Example 101, 7-fluoro-6-(5-methoxy-1H-benzo[d][1,2,3]triazol-1-yl)-3,4-dihydroisoquinoline-2(1H)-sulfonamide], < 1 µM; that for `COc1ccc2c(c1)nnn2-c1ccc2c(c1)CN(S(N)(=O)=O)CCC2` [Example 98, 8-(5-methoxy-1H-benzo[d][1,2,3]triazol-1-yl)-1,3,4,5-tetrahydro-2H-benzo[c]azepine-2-sulfonamide], > 10 µM. For `COc1ccc2c(c1)nnn2-c1ccc([C@H](C)N)cc1` [Example 14, (S)-1-(4-(5-methoxy-1H-benzo[d][1,2,3]triazol-1-yl)phenyl)ethan-1-amine Hydrochloride], the IC50 is < 1 µM. Consider `NS(=O)(=O)NCc1ccc(-n2nnc3cc(OC(F)(F)F)ccc32)cc1` [Example 89], for which the IC50 is > 10 µM. Regarding `COc1cc2nnn(-c3ccc(CNS(N)(=O)=O)cc3F)c2cc1C` [Example 70, N-(3-fluoro-4-(5-methoxy-6-methyl-1H-benzo[d][1,2,3]triazol-1-yl)benzyl)sulfamide], the IC50 was < 1 µM. Regarding `COc1cc2nnn(-c3ccc4c(c3)CN(S(N)(=O)=O)C4)c2cc1OC` [Example 102, 5-(5,6-dimethoxy-1H-benzo[d][1,2,3]triazol-1-yl)-isoindoline-2-sulfonamide], the half-maximal inhibitory concentration (IC50) is < 1 µM.

In the case of `COc1ccc2c(c1)nnn2-c1cc(F)c(CN)c(F)c1` [Example 18], the IC50 is > 10 µM. The result for `COc1ccc2c(c1)nnn2C1CCC(CN)CC1` (centres unmarked) [Example 2] reads > 10 µM; that for `COc1ccc2c(c1)nnn2-c1ccc(CCNS(N)(=O)=O)cc1` [Example 73, N-(4-(5-methoxy-1H-benzo[d][1,2,3]triazol-1-yl)phenethyl)sulfamide Hydrochloride], < 1 µM; that for `COc1cccc2c1nnn2-c1ccc(CNS(N)(=O)=O)cc1` [Example 50, N-(4-(4-methoxy-1H-benzo[d][1,2,3]triazol-1-yl)benzyl)sulfamide], < 1 µM. On to `CNCc1ccc(-n2nnc3cc(OC)ccc32)cc1` [Example 12, 1-(4-(5-methoxy-1H-benzo[d][1,2,3]triazol-1-yl)phenyl)-N-methylmethanamine Hydrochloride], for which the IC50 was > 10 µM.

As to `COc1ccc2c(c1)nnn2-c1ccc(CNS(N)(=O)=O)s1` [Example 106, N-((5-(5-methoxy-1H-benzo[d][1,2,3]triazol-1-yl)thiophen-2-yl)methyl)sulfamide], the IC50 was > 10 µM. In the case of `COc1ccc2c(c1)nnn2CC1CCN(S(N)(=O)=O)CC1` [Example 45, 4-((5-methoxy-1H-benzo[d][1,2,3]triazol-1-yl)methyl)piperidine-1-sulfonamide], the IC50 is < 1 µM.

On to `CC(C)Oc1ccc2c(c1)nnn2-c1ccc(CN)cc1F` [Example 20], for which the IC50 was > 10 µM. The result for `COc1ccc2c(c1)nnn2-c1ccc(CN(C2CC2)S(N)(=O)=O)cc1` [Example 82, N-cyclopropyl-N-(4-(5-methoxy-1H-benzo[d][1,2,3]triazol-1-yl)benzyl)sulfamide] reads < 1 µM.

For `CCS(=O)(=O)NCc1ccc(-n2nnc3cc(OC)ccc32)c(F)c1` [Example 113, N-(3-fluoro-4-(5-methoxy-1H-benzo[d][1,2,3]triazol-1-yl)benzyl)ethanesulfonamide], the IC50 was > 10 µM. For the molecule `COc1cc(OC)c2nnn(-c3ccc(CN)cc3)c2c1` [Example 9, 4-(4,6-dimethoxy-1H-benzo[d][1,2,3]triazol-1-yl)phenyl)methanamine Hydrochloride], the IC50 was 1 to 10 µM. The result for `COc1ccc2c(c1)nnn2-c1ccc2c(c1)CC(NS(N)(=O)=O)C2` (centres unmarked) [Example 95] reads < 1 µM; that for `CCOP(=O)(NCc1ccc(-n2nnc3cc(OC)ccc32)c(F)c1)OCC` [Example 117, diethyl-(3-fluoro-4-(5-methoxy-1H-benzo[d][1,2,3]triazol-1-yl)benzyl)phosphoamidite], > 10 µM. For `COc1cc(OC)c2nnn(-c3ccc(CNS(N)(=O)=O)cc3)c2c1` [Example 54, N-(4-(4,6-dimethoxy-1H-benzo[d][1,2,3]triazol-1-yl)benzyl)sulfamide], the IC50 is 1 to 10 µM. For the molecule `COc1ccc2c(c1)nnn2C12CC(CN)(C1)C2` [Example 30], the IC50 is > 10 µM. With `COc1ccc2c(c1)nnn2-c1ccc(CNS(N)(=O)=O)cc1C` [Example 66, N-(4-(5-methoxy-1H-benzo[d][1,2,3]triazol-1-yl)-3-methylbenzyl)sulfamide], the IC50 was < 1 µM. For `COc1cc2nnn(-c3ccc(CNS(N)(=O)=O)cc3F)c2cc1F` [Example 93, N-(3-fluoro-4-(6-fluoro-5-methoxy-1H-benzo[d][1,2,3]triazol-1-yl)benzyl)sulfamide], the concentration for half-maximal inhibition (IC50) is < 1 µM. For the molecule `COc1ccc2nn(Cc3ccc(NS(N)(=O)=O)cc3)nc2c1` [Example 109, Hydrochloride], the IC50 lay in the range of 1 to 10 µM.

Consider `Cc1ccc2c(c1)nnn2-c1ccc(CNS(N)(=O)=O)cc1F` [Example 75, N-(3-fluoro-4-(5-methyl-1H-benzo[d][1,2,3]triazol-1-yl)benzyl)sulfamide], for which the IC50 was > 10 µM. Consider `COc1cc2nnn(-c3ccc(CN)cc3)c2cc1OC` [Example 10, 4-(5,6-dimethoxy-1H-benzo[d][1,2,3]triazol-1-yl)phenyl)methanamine Hydrochloride], for which the IC50 lay in the range of 1 to 10 µM. As to `COc1cc2nnn(-c3ccc4c(c3)CNC4)c2cc1OC` [Example 29, 1-(isoindolin-5-yl)-5,6-dimethoxy-1H-benzo[d][1,2,3]triazole Hydrochloride], the IC50 is > 10 µM.

With `COc1ccc2c(c1)nnn2-c1ccc2c(c1)CNCCC2` [Example 27, 8-(5-methoxy-1H-benzo[d][1,2,3]triazol-1-yl)-2,3,4,5-tetrahydro-1H-benzo[c]azepine Hydrochloride], the IC50 was > 10 µM.
